≈ marks a conversion by molar mass, not a printed value.
How the values were obtained:
[1] = tested on: Staphylococcus aureus SA1199; test: broth micro-dilution MIC; format: cell-based
Procedure: (§1) The MIC's were determined using a standard broth micro-dilution assay.

[2] = tested on: Staphylococcus aureus SA1199A; test: broth micro-dilution MIC; format: cell-based
Procedure: as §1

[3] = tested on: Streptococcus pyogenes C203; test: broth micro-dilution MIC; format: cell-based
Procedure: as §1

[4] = tested on: Staphylococcus aureus 489; test: broth micro-dilution MIC; format: cell-based
Procedure: as §1

Entercoccus faecium 276 = test: broth micro-dilution MIC; format: cell-based
Procedure: as §1

[5] = tested on: Staphylococcus aureus X778; test: broth micro-dilution MIC; format: cell-based
Procedure: as §1

[6] = tested on: Staphylococcus aureus X400; test: broth micro-dilution MIC; format: cell-based
Procedure: as §1

[7] = tested on: Staphylococcus aureus 447; test: broth micro-dilution MIC; format: cell-based
Procedure: as §1

[8] = tested on: Staphylococcus aureus 446; test: broth micro-dilution MIC; format: cell-based
Procedure: as §1

[9] = tested on: Entercoccus faecium 180-1; test: broth micro-dilution MIC; format: cell-based
Procedure: as §1

[10] = tested on: vancomycin-resistant enterococci; test: broth micro-dilution, mean geometric MIC; format: cell-based, Enterococcus faecium and Enterococcus faecalis; conditions: enterococci, 24-hour incubation
[11] = tested on: Enterococcus gallinarum 245; test: broth micro-dilution MIC; format: cell-based; conditions: Enterococcus gallinarum 245
Procedure: (§2) The formula I compounds have in vitro and in vivo activity against Gram-positive pathogenic bacteria. The MIC's were determined using a standard broth micro-dilution assay.

Entercoccus faecium 2041 = test: broth micro-dilution MIC; format: cell-based; conditions: Entercoccus faecium 2041
Procedure: as §2

[12] = tested on: Staphylococcus haemolyticus 105; test: broth micro-dilution MIC; format: cell-based
Procedure: as §2

[13] = tested on: Staphylococcus haemolyticus 415; test: broth micro-dilution MIC; format: cell-based
Procedure: as §2

[14] = tested on: Streptococcus pneumoniae P1; test: broth micro-dilution MIC; format: cell-based
Procedure: as §2

Entercoccus faecium 180 = test: broth micro-dilution MIC; format: cell-based; conditions: Entercoccus faecium 180
Procedure: as §2

[15] = tested on: Staphylococcus epidermidis 270; test: broth micro-dilution MIC; format: cell-based
Procedure: as §2

[16] = tested on: vancomycin-susceptible enterococci; test: broth micro-dilution, mean geometric MIC; format: cell-based, Enterococcus faecium and Enterococcus faecalis; conditions: enterococci, 24-hour incubation
[17] = tested on: Staphylococcus aureus SA1199B; format: cell-based
Procedure: as §1

[18] = tested on: Staphylococcus aureus S13E; format: cell-based
Procedure: as §1

## CNC(CC(C)C)C(=O)NC1C(=O)NC(CC(N)=O)C(=O)NC2C(=O)NC3C(=O)NC(C(=O)NC(C(=O)O)c4cc(O)cc(O)c4-c4cc3ccc4O)C(OC3CC(C)(N)C(O)C(C)O3)c3ccc(c(Cl)c3)Oc3cc2cc(c3OC2OC(CO)C(O)C(O)C2OC2CC(C)(NCC3CCC(Cc4ccccc4)CC3)C(O)C(C)O2)Oc2ccc(cc2Cl)C1O (centres unmarked) [Compound 241]
[1]
  MIC: 1 µg/mL (≈ 0.562 µM)
[2]
  MIC: ≤ 0.06 µg/mL
[3]
  MIC: ≤ 0.06 µg/mL
[4]
  MIC: 0.5 µg/mL (≈ 0.281 µM)
Entercoccus faecium 276
  MIC: ≤ 0.06 µg/mL
[5]
  MIC: 1 µg/mL (≈ 0.562 µM)
[6]
  MIC: 0.5 µg/mL (≈ 0.281 µM)
[7]
  MIC: 1 µg/mL (≈ 0.562 µM)
[8]
  MIC: 0.5 µg/mL (≈ 0.281 µM)
[9]
  MIC: ≤ 0.06 µg/mL
[10]
  mean geometric MIC, Vancomycin Resistant Strains: 1.4 µg/mL
[11]
  MIC: ≤ 0.06 µg/mL
Entercoccus faecium 2041
  MIC: ≤ 0.06 µg/mL
[12]
  MIC: 1 µg/mL (≈ 0.562 µM)
[13]
  MIC: 1 µg/mL (≈ 0.562 µM)
[14]
  MIC: ≤ 0.06 µg/mL
Entercoccus faecium 180
  MIC: ≤ 0.06 µg/mL
[15]
  MIC: 0.5 µg/mL (≈ 0.281 µM)
[16]
  mean geometric MIC, Vancomycin Sensitive Strains: 0.048 µg/mL
[17]
  MIC: 1 µg/mL (≈ 0.562 µM)

## CNC(CC(C)C)C(=O)NC1C(=O)NC(CC(N)=O)C(=O)NC2C(=O)NC3C(=O)NC(C(=O)NC(C(=O)O)c4cc(O)cc(O)c4-c4cc3ccc4O)C(OC3CC(C)(N)C(O)C(C)O3)c3ccc(c(Cl)c3)Oc3cc2cc(c3OC2OC(CO)C(O)C(O)C2OC2CC(C)(NCc3ccc(-c4ccccn4)cc3)C(O)C(C)O2)Oc2ccc(cc2Cl)C1O (centres unmarked) [Compound 137]
[1]
  MIC: ≤ 0.06 µg/mL
[2]
  MIC: ≤ 0.06 µg/mL
[3]
  MIC: ≤ 0.06 µg/mL
[4]
  MIC: ≤ 0.06 µg/mL
Entercoccus faecium 276
  MIC: ≤ 0.06 µg/mL
[5]
  MIC: ≤ 0.06 µg/mL
[6]
  MIC: ≤ 0.06 µg/mL
[7]
  MIC: 4 µg/mL (≈ 2.27 µM)
[9]
  MIC: ≤ 0.06 µg/mL
[10]
  mean geometric MIC, Vancomycin Resistant Strains: 6.7 µg/mL
[11]
  MIC: 8 µg/mL (≈ 4.55 µM)
Entercoccus faecium 2041
  MIC: ≤ 0.06 µg/mL
[12]
  MIC: 2 µg/mL (≈ 1.14 µM)
[13]
  MIC: 8 µg/mL (≈ 4.55 µM)
[14]
  MIC: ≤ 0.06 µg/mL
Entercoccus faecium 180
  MIC: 0.125 µg/mL (≈ 0.071 µM)
[15]
  MIC: 0.5 µg/mL (≈ 0.284 µM)
[16]
  mean geometric MIC, Vancomycin Sensitive Strains: 0.38 µg/mL
[18]
  MIC: ≤ 0.06 µg/mL
[17]
  MIC: ≤ 0.06 µg/mL

## CNC(CC(C)C)C(=O)NC1C(=O)NC(CC(N)=O)C(=O)NC2C(=O)NC3C(=O)NC(C(=O)NC(C(=O)O)c4cc(O)cc(O)c4-c4cc3ccc4O)C(OC3CC(C)(N)C(O)C(C)O3)c3ccc(c(Cl)c3)Oc3cc2cc(c3OC2OC(CO)C(O)C(O)C2OC2CC(C)(NCc3sccc3-c3cccs3)C(O)C(C)O2)Oc2ccc(cc2Cl)C1O (centres unmarked) [Compound 238]
[1]
  MIC: 0.5 µg/mL (≈ 0.282 µM)
[2]
  MIC: ≤ 0.06 µg/mL
[3]
  MIC: ≤ 0.06 µg/mL
[4]
  MIC: 0.5 µg/mL (≈ 0.282 µM)
Entercoccus faecium 276
  MIC: ≤ 0.06 µg/mL
[5]
  MIC: 0.5 µg/mL (≈ 0.282 µM)
[6]
  MIC: 1 µg/mL (≈ 0.565 µM)
[7]
  MIC: 0.5 µg/mL (≈ 0.282 µM)
[8]
  MIC: 1 µg/mL (≈ 0.565 µM)
[9]
  MIC: ≤ 0.06 µg/mL
[10]
  mean geometric MIC, Vancomycin Resistant Strains: 1.4 µg/mL
[11]
  MIC: ≤ 0.06 µg/mL
Entercoccus faecium 2041
  MIC: ≤ 0.06 µg/mL
[12]
  MIC: 0.5 µg/mL (≈ 0.282 µM)
[13]
  MIC: 2 µg/mL (≈ 1.13 µM)
[14]
  MIC: ≤ 0.06 µg/mL
Entercoccus faecium 180
  MIC: 0.125 µg/mL (≈ 0.0706 µM)
[15]
  MIC: 0.5 µg/mL (≈ 0.282 µM)
[16]
  mean geometric MIC, Vancomycin Sensitive Strains: 0.14 µg/mL
[18]
  MIC: 0.125 µg/mL (≈ 0.0706 µM)
[17]
  MIC: 0.5 µg/mL (≈ 0.282 µM)

## CNC(CC(C)C)C(=O)NC1C(=O)NC(CC(N)=O)C(=O)NC2C(=O)NC3C(=O)NC(C(=O)NC(C(=O)O)c4cc(O)cc(O)c4-c4cc3ccc4O)C(OC3CC(C)(N)C(O)C(C)O3)c3ccc(c(Cl)c3)Oc3cc2cc(c3OC2OC(CO)C(O)C(O)C2OC2CC(C)(NCc3cccc(OC(C)=O)c3)C(O)C(C)O2)Oc2ccc(cc2Cl)C1O (centres unmarked) [Compound 77]
[1]
  MIC: ≤ 0.06 µg/mL
[2]
  MIC: ≤ 0.06 µg/mL
[3]
  MIC: ≤ 0.06 µg/mL
[4]
  MIC: ≤ 0.06 µg/mL
Entercoccus faecium 276
  MIC: 0.25 µg/mL (≈ 0.144 µM)
[5]
  MIC: ≤ 0.06 µg/mL
[6]
  MIC: ≤ 0.06 µg/mL
[7]
  MIC: 1 µg/mL (≈ 0.575 µM)
[8]
  MIC: ≤ 0.06 µg/mL
[9]
  MIC: 0.125 µg/mL (≈ 0.0718 µM)
[11]
  MIC: 0.25 µg/mL (≈ 0.144 µM)
Entercoccus faecium 2041
  MIC: 0.25 µg/mL (≈ 0.144 µM)
[12]
  MIC: 2 µg/mL (≈ 1.15 µM)
[13]
  MIC: 8 µg/mL (≈ 4.6 µM)
[14]
  MIC: ≤ 0.06 µg/mL
Entercoccus faecium 180
  MIC: 8 µg/mL (≈ 4.6 µM)
[15]
  MIC: 0.5 µg/mL (≈ 0.287 µM)
[18]
  MIC: 0.125 µg/mL (≈ 0.0718 µM)
[17]
  MIC: 0.125 µg/mL (≈ 0.0718 µM)
